Patent US20240158370A1, “CK1 alpha AND DUAL CK1 alpha / GSPT1 DEGRADING COMPOUNDS” (Innovo Therapeutics, Inc., priority 2022, published 2024)

How the values were obtained:
Format in all cases: cell-based
CK1α = biological target: T1, CK1α (Homo sapiens, UniProt P48729+Q96SW2); assay: HiBiT degradation assay, CK1α, Procedure A
T1 construct: CSNK1A1-HiBit KI HEK293(LgBit) Cells; host or cells: HEK293(LgBit) knock-in cells
Outline: (§1)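 Cells in DMEM+10% FBS at 1×10^6 cells/ml were added to pre-spotted compound (10-point dose response, 10 μM to 0.005 μM, 0.1% DMSO) and incubated 6 h at 37° C. Nano-Glo HiBiT lytic reagent was added and luminescence read. DC50 and Ymin came from 4-parameter curve fits.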

Z-138 cells = assay: Z-138 Proliferation Assay (Cell Titer-Glo); settings: 72 hours; for Ymin (%): % remaining (percent of DMSO control); for EC50: Homo sapiens, Cell Titer-Glo, 4-parameter curve fit
Procedure: Z-138 Proliferation Assay
Z-138 cells were cultured in IMDM Medium supplemented with 10% heat in-activated fetal bovine serum and 1% Penicillin-Streptomycin.
10 mM stocks of compound were made from fresh powder. DMSO was added to solid compound so that the final concentration was 10 mM. Compounds were vortexed and allowed to sit for 5 minutes to ensure complete solubility. Solvated compound was aliquoted into 1 ml Eppendorf tubes and stored in a −20° C. freezer.
Z-138 cells were maintained in culture using standard cell culturing techniques.
Cells were maintained at a density of 0.8×10^6 cells/ml.
Re-constitute cell titer-glo reagent according to manufacturer's protocol.
Z-138 cells were removed from culture and cell viability and density were determined using a CellDrop™ Automated Cell Counter with Tryphan blue stain according to manufacturer's protocols. Cells were centrifuged and resuspended using fresh media to a cell density of 0.1×10^6 cells/ml. […] 40 μl of cell suspension was added to the wells of a 384 well tissue culture plate (4,000 cells/well final). Upon completing the addition of the cells to the plate, the plates were centrifuged for 30 seconds at 300 rpms to help the cells settle and to bring air bubbles to the top of the wells. Air bubbles were popped using a pipette tip.
10-point dose response curves were performed using a D300e Digital Dispenser. The highest concentration of compound used in the assay was 10,000 nM. 1:2 dilutions were performed over a 10-point range with the final DMSO concentration being 0.1%. The cells were cultured for 72 hours in the presence of compound.
After 72 hours, the cell plates were removed from the incubator and allowed to equilibrate to room temperature (about 15 minutes). 20 μl of cell titer-glo reagent was added to each well of the 384 well plate. Incubated the plate for 30 minutes in the dark. After 30 minutes, ensured that there were no air bubbles in the plate (popped bubbles with pipette tip if necessary) and analyzed plate using a luminometer.
EC50 curves were generated using Prism Graph Pad. In brief, POCs (percent of control, compound/DMSO control×100) were plotted against the compound concentrations (log scale). EC50 curves were generated using a 4-parameter curve fit.

GSPT1 [1] = biological target: T2, GSPT1 (Homo sapiens, UniProt P15170+Q96SW2); assay: HiBiT degradation assay, GSPT1, Procedure A; set-up: HiBit-GSPT1 KI HEK293(LgBit) Cells; host or cells: HEK293(LgBit) knock-in cells
T2 sequence (P15170 whole entry): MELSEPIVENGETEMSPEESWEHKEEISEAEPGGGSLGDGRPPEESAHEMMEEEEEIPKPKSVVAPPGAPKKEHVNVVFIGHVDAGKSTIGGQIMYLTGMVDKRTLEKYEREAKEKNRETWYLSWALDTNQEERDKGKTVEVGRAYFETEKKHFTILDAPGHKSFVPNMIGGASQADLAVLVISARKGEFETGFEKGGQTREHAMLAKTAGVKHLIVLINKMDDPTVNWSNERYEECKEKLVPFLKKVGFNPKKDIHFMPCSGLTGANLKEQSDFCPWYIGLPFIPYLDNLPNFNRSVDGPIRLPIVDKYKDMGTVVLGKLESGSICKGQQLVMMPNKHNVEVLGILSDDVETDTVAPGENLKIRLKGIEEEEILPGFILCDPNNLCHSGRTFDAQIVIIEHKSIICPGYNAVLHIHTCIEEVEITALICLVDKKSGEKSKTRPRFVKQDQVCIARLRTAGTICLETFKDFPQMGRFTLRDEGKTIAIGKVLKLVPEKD
T2 sequence (Q96SW2 whole entry): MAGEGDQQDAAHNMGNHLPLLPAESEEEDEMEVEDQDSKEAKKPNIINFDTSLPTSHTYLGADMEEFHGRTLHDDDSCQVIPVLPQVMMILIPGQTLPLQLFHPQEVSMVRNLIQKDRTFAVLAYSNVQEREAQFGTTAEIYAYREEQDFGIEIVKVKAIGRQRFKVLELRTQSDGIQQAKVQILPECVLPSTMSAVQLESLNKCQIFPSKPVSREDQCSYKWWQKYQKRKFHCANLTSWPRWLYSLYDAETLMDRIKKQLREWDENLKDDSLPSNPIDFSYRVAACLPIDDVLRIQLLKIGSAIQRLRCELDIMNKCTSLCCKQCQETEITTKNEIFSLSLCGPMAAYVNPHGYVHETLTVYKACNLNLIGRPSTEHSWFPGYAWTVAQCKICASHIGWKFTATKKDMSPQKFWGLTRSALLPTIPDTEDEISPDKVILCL
T2 sequence (Q16531 whole entry partner): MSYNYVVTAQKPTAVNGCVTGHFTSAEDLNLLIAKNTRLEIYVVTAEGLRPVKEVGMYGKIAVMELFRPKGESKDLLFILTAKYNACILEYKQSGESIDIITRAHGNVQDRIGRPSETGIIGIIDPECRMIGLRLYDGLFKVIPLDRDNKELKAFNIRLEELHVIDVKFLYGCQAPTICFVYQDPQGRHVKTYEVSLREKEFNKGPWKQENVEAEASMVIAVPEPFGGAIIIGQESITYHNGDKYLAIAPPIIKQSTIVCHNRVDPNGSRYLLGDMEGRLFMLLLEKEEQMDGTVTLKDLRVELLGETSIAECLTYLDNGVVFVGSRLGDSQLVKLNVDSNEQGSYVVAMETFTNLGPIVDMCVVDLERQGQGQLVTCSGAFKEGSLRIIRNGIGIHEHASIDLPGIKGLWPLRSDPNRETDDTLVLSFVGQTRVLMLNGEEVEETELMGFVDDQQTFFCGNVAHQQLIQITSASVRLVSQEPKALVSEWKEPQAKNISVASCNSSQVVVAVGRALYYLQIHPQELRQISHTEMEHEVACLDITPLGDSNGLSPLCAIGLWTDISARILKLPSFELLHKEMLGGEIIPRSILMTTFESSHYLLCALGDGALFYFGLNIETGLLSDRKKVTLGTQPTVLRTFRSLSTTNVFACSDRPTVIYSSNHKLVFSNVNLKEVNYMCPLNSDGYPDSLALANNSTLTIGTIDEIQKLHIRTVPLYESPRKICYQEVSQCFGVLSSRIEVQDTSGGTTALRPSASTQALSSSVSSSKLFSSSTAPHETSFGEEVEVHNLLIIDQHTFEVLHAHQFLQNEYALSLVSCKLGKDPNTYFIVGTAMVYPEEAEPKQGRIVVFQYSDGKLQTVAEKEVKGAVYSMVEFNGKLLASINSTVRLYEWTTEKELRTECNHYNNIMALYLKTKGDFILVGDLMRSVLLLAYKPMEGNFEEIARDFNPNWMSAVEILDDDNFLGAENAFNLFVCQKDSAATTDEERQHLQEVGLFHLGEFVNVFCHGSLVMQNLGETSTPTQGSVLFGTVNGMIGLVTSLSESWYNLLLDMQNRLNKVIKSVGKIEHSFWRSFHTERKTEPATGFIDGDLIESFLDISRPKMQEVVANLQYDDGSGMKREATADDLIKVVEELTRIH
Outline: as §1

GSPT1 [2] = biological target: T2, GSPT1; assay: HiBiT degradation assay, GSPT1, Procedure B (Molt 4_hGSPT1_HiBIT cells); set-up: Molt 4_hGSPT1_HiBIT N-terminus tagged cells were generated using CRISPR technology; endogenous in cells; host or cells: Molt 4 cells, CRISPR-edited; settings: six hours
Outline: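 CRISPR N-terminal HiBiT-tagged Molt 4 cells at 1×10^6 cells/ml were treated 6 h at 37° C with compounds (10-point, 10 μM to 0.005 μM, 0.1% DMSO). Remaining HiBiT-GSPT1 was read by lytic luminescence; DC50 and Ymin (% remaining) from a 4-parameter fit.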

T1 sequence (P48729 whole entry): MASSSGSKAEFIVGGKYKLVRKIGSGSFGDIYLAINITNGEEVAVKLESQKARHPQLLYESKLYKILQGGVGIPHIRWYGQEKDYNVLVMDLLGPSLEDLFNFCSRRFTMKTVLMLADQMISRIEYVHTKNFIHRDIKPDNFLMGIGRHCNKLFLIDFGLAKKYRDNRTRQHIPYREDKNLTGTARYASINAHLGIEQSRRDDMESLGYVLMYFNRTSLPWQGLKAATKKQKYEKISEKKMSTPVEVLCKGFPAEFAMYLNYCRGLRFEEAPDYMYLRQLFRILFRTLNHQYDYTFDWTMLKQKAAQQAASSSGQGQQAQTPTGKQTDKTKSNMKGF
T1 sequence (Q96SW2 whole entry): as the sequence (Q96SW2 whole entry) above
T1 sequence (Q16531 whole entry partner): as the sequence (Q16531 whole entry partner) above

Row | CK1α Ymin (CK1α; six hours incubation) | DC50 (CK1α; six hours incubation) [nM] | DC50 (GSPT1 [1]; six hours incubation) [nM] | GSPT1 Ymin (GSPT1 [1]; six hours incubation) | CK1α Ymin (CK1α; six hours) | DC50 (CK1α; six hours) [nM] | DC50 (GSPT1 [1]; six hours) [nM] | GSPT1 Ymin (GSPT1 [1]; six hours) | DC50 (GSPT1 [2]) [nM] | GSPT1 Ymin (GSPT1 [2]) | Compound | Ymin (%) (Z-138 cells) | EC50 (Z-138 cells) [nM]
1 | C (C = 0-10% remaining) | < 25 | < 25 | F (F = >75-100% remaining) |  |  |  |  |  |  | Cn1cc(-c2ccc3c(c2)CN(C2CCC(=O)NC2=O)C3=O)nc1C1CCCCC1 (stereo not drawn) [Example 335, 3-(5-(2-cyclohexyl-1-methyl-1H-imidazol-4-yl)-1-oxoisoindolin-2-yl)piperidine-2,6-dione] | D (0-10% remaining) | 10 to 100
2 |  |  |  |  | D (D = >10- 25% remaining) | < 25 | ≥ 25 | F (F = >75-100% remaining) |  |  | O=C1CCC(N2Cc3cc(-c4nc(-c5ccccc5)n(C(F)F)n4)ccc3C2=O)C(=O)N1 (stereo not drawn) [Example 703, 3-(5-(1-(difluoromethyl)-5-phenyl-1H-1,2,4-triazol-3-yl)-1-oxoisoindolin-2-yl) piperidine-2,6-dione] | E (>10-25% remaining) | 10 to 100
3 | D (D = >10- 25% remaining) | < 25 | ≥ 25 | F (F = >75-100% remaining) |  |  |  |  |  |  | Cn1nc(-c2ccc3c(c2)CN(C2CCC(=O)NC2=O)C3=O)cc1-c1ccccc1 (stereo not drawn) [Example 36, 3-(5-(1-Methyl-5-phenyl-1H-pyrazol-3-yl)-1-oxoisoindolin-2-yl) piperidine-2,6-dione] | E (>10-25% remaining) | 10 to 100
4 | C (C = 0-10% remaining) | < 25 | ≥ 25 | E (E = >25-75% remaining) |  |  |  |  |  |  | Cc1nc(-c2ccc3c(c2)CN(C2CCC(=O)NC2=O)C3=O)c(-c2ccccc2)o1 (stereo not drawn) [Example 19, 3-(5-(2-Methyl-5-phenyloxazol-4-yl)-1-oxoisoindolin-2-yl)piperidine-2,6-dione] | D (0-10% remaining) | < 10
5 | C (C = 0-10% remaining) | < 25 | ≥ 25 | F (F = >75-100% remaining) |  |  |  |  |  |  | CCn1nc(-c2ccccc2)c(-c2ccc3c(c2)CN(C2CCC(=O)NC2=O)C3=O)n1 (stereo not drawn) [Example 51, 3-(5-(2-Ethyl-5-phenyl-2H-1,2,3-triazol-4-yl)-1-oxoisoindolin-2-yl)piperidine-2,6-dione] | D (0-10% remaining) | 10 to 100
6 | C (C = 0-10% remaining) | < 25 | < 25 | F (F = >75-100% remaining) |  |  |  |  |  |  | Cn1c(C(F)(F)F)nc(-c2ccc3c(c2)CN(C2CCC(=O)NC2=O)C3=O)c1-c1ccccc1 (stereo not drawn) [Example 52, 3-(5-(1-Methyl-5-phenyl-2-(trifluoromethyl)-1H-imidazol-4-yl)-1-oxoisoindolin-2-yl)piperidine-2,6-dione] | D (0-10% remaining) | < 10
7 |  |  |  |  | C (C = 0-10% remaining) | < 25 | < 25 | F (F = >75-100% remaining) |  |  | Cc1c(-c2ccc3c(c2)CN(C2CCC(=O)NC2=O)C3=O)nc(C2CCOCC2)n1C (stereo not drawn) [Example 615, 3-(5-(1,5-dimethyl-2-(tetrahydro-2H-pyran-4-yl)-1H-imidazol-4-yl)-1-oxoisoindolin-2-yl)piperidine-2,6-dione] | E (>10-25% remaining) | 10 to 100
8 |  |  |  |  | C (C = 0-10% remaining) | < 25 | ≥ 25 | F (F = >75-100% remaining) |  |  | CC(C)n1nc(-c2ccc3c(c2)CN(C2CCC(=O)NC2=O)C3=O)nc1-c1ccccc1 (stereo not drawn) [Example 553, 3-(5-(1-isopropyl-5-phenyl-1H-1,2,4-triazol-3-yl)-1-oxoisoindolin-2-yl)piperidine-2,6-dione] | D (0-10% remaining) | 10 to 100
9 | C (C = 0-10% remaining) | < 25 | ≥ 25 | E (E = >25-75% remaining) |  |  |  |  |  |  | Cn1c(C2CC2)nc(-c2ccc3c(c2)CN(C2CCC(=O)NC2=O)C3=O)c1-c1ccccc1 (stereo not drawn) [Example 12, 3-(5-(2-cyclopropyl-1-methyl-5-phenyl-1H-imidazol-4-yl)-1-oxoisoindolin-2-yl)piperidine-2,6-dione] | D (0-10% remaining) | < 10
10 |  |  |  |  | C (C = 0-10% remaining) | < 25 | ≥ 25 | F (F = >75-100% remaining) |  |  | O=C1CCC(N2Cc3cc(-c4cn(C(F)F)c(-c5ccccc5)n4)ccc3C2=O)C(=O)N1 (stereo not drawn) [Example 421, 3-(5-(1-(difluoromethyl)-2-phenyl-1H-imidazol-4-yl)-1-oxoisoindolin-2-yl)piperidine-2,6-dione] | F (>25-50% remaining) | 10 to 100
11 |  |  |  |  | E (E = >25-75% remaining) | < 25 | ≥ 25 | F (F = >75-100% remaining) |  |  | Cn1ncc(-c2ccc3c(c2)CN(C2CCC(=O)NC2=O)C3=O)c1C1CCCCC1 (stereo not drawn) [Example 588] | F (>25-50% remaining) | 10 to 100
12 | C (C = 0-10% remaining) | < 25 | ≥ 25 | F (F = >75-100% remaining) |  |  |  |  |  |  | COc1ccc(-c2c(-c3ccc4c(c3)CN(C3CCC(=O)NC3=O)C4=O)cnn2C)c(F)c1 (stereo not drawn) [Example 64] | E (>10-25% remaining) | < 10
13 |  |  |  |  | D (D = >10- 25% remaining) | < 25 |  |  |  |  | Cn1nc(-c2ccc3c(c2)CN(C2CCC(=O)NC2=O)C3=O)cc1-c1ccc(F)cc1 (stereo not drawn) [Example 488, 3-(5-(5-(4-fluorophenyl)-1-methyl-1H-pyrazol-3-yl)-1-oxoisoindolin-2-yl)piperidine-2,6-dione] | E (>10-25% remaining) | 10 to 100
14 |  |  |  |  | D (D = >10- 25% remaining) | < 25 |  |  | < 25 | E (E = >25-75% remaining) | Cn1cc(-c2ccc3c(c2)CN(C2CCC(=O)NC2=O)C3=O)nc1[C@H]1CC[C@H](C)CC1 (stereo partly drawn) [Example 715, 3-(5-(1-Methyl-2-((1r,4r)-4-methylcyclohexyl)-1H-imidazol-4-yl)-1-oxoisoindolin-2-yl)piperidine-2,6-dione] |  | 
15 |  |  |  |  | D (D = >10- 25% remaining) | < 25 |  |  | < 25 | E (E = >25-75% remaining) | Cn1cc(-c2ccc3c(c2)CN(C2CCC(=O)NC2=O)C3=O)nc1-c1ccccc1C(F)(F)F (stereo not drawn) [Example 649] |  | 
16 |  |  |  |  | E (E = >25-75% remaining) | < 25 |  |  | ≥ 25 | F (F = >75-100% remaining) | Cn1ncc(-c2ccc3c(c2)CN(C2CCC(=O)NC2=O)C3=O)c1C1=CCC(c2ccccc2)CC1 (stereo not drawn) [Example 696] |  | 
17 |  |  |  |  | C (C = 0-10% remaining) | < 25 |  |  | ≥ 25 | F (F = >75-100% remaining) | Cn1cc(-c2ccc3c(c2)CN(C2CCC(=O)NC2=O)C3=O)nc1-c1cccs1 (stereo not drawn) [Example 646] |  | 
18 |  |  |  |  | C (C = 0-10% remaining) | < 25 |  |  | ≥ 25 | F (F = >75-100% remaining) | Cc1ccc(Cl)cc1-c1nc(-c2ccc3c(c2)CN(C2CCC(=O)NC2=O)C3=O)cn1C (stereo not drawn) [Example 640] |  | 
